Measured values: ChEMBL document CHEMBL3991601, “The target landscape of clinical kinase drugs” (Science, 2017)
Activity calls are given as the source filed them.

Tests used:
[1] = molecular target: T1, Dual specificity mitogen-activated protein kinase kinase 6 (Homo sapiens, UniProt P52564)
T1 sequence (P52564 whole entry): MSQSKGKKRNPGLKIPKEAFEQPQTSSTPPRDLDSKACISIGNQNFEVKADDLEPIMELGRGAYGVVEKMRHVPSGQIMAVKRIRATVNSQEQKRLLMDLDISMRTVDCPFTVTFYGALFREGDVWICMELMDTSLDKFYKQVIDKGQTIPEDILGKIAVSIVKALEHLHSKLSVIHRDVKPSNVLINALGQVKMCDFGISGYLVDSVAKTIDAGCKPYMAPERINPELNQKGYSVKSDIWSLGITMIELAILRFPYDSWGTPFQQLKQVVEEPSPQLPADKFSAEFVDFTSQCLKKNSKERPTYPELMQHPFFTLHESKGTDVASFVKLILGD

[2] = molecular target: T2, Mitogen-activated protein kinase kinase kinase 3 (Homo sapiens, UniProt Q99759)
T2 sequence (Q99759 whole entry): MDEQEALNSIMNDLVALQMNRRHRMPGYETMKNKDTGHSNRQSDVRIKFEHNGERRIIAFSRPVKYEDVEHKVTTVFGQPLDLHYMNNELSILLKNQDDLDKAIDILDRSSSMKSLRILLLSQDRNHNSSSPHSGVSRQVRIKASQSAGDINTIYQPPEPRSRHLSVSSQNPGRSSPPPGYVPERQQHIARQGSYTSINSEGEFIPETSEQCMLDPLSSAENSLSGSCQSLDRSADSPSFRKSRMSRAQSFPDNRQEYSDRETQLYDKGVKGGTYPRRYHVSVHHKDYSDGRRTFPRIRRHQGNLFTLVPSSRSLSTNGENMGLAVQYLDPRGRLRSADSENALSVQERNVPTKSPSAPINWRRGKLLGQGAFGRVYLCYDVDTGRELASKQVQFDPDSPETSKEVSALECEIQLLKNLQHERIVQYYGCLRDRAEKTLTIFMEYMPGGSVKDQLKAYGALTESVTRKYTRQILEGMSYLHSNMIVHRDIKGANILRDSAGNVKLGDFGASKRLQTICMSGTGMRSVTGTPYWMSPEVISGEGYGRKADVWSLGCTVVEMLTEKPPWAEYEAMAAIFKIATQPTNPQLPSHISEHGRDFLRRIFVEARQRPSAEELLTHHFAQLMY

[3] = molecular target: T3, Receptor-type tyrosine-protein kinase FLT3 (Homo sapiens, UniProt P36888)
T3 sequence (P36888 whole entry): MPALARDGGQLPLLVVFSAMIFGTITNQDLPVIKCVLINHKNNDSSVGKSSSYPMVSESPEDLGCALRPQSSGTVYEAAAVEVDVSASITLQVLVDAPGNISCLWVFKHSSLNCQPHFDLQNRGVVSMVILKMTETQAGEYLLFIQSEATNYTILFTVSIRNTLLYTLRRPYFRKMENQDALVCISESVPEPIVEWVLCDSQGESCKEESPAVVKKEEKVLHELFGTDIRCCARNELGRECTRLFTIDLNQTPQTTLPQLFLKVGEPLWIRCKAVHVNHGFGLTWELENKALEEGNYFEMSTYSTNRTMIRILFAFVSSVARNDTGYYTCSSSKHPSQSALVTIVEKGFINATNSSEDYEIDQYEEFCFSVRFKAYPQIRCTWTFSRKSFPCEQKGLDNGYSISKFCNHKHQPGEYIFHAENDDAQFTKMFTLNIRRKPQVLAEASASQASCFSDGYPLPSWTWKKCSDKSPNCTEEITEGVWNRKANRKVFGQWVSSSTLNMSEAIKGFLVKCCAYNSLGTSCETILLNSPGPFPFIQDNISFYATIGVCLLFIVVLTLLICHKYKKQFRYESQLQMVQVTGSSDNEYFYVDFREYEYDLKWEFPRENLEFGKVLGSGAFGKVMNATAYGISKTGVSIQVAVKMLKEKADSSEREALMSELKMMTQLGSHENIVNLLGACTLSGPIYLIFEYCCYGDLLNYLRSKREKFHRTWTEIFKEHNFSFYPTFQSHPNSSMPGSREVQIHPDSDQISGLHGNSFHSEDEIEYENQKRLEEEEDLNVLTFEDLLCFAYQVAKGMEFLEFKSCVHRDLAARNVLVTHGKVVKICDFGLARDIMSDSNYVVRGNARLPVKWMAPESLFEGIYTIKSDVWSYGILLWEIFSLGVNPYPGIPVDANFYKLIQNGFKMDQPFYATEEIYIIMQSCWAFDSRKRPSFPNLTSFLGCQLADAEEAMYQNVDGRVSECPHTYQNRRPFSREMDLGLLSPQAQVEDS

Septin-9 = molecular target: T4, Septin-9 (Homo sapiens, UniProt Q9UHD8)
T4 sequence (Q9UHD8 whole entry): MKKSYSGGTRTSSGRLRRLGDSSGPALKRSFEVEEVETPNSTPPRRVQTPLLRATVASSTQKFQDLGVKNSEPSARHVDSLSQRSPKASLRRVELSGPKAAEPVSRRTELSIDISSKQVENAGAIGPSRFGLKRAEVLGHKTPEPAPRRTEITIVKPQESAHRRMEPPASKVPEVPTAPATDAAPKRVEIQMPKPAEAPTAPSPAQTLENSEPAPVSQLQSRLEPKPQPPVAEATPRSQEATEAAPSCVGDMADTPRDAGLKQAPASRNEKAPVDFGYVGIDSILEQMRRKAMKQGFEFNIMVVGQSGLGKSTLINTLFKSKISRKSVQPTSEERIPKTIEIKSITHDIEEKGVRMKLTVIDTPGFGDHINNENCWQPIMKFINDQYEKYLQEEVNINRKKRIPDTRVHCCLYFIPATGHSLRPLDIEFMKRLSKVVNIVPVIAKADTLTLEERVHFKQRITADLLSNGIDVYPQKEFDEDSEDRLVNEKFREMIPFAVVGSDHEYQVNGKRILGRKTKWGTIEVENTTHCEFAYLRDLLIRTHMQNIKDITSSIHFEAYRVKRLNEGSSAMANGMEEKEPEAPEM
Further: in the data inactive means no Kd found up to 30 µM.

| Compound | Kd [1] | Kd [2] | Kd [3] | Kd (Septin-9) |
| --- | --- | --- | --- | --- |
| C[C@@H](c1ccc2nccn2c1)n1nnc2ncc(-c3cnn(C)c3)nc21 [SAVOLITINIB] | > 30 µM (inactive) | > 30 µM (inactive) | > 30 µM (inactive) | > 30 µM (inactive) |
| Cn1cc(-c2ccc3nnc(C(F)(F)c4ccc5ncccc5c4)n3n2)cn1 [JNJ-38877605] | > 30 µM (inactive) | > 30 µM (inactive) | > 30 µM (inactive) | > 30 µM (inactive) |
| COCCNCc1ccc(-c2cc3nccc(Oc4ccc(NC(=S)NC(=O)Cc5ccc(F)cc5)cc4F)c3s2)nc1 [GLESATINIB] | > 30 µM (inactive) | > 30 µM (inactive) | 0.179 µM (active) | > 30 µM (inactive) |
| N[C@@H]1CCCN(c2c(/C=C3\SC(=O)NC3=O)cccc2-c2ccccc2)C1 | > 30 µM (inactive) | > 30 µM (inactive) | > 30 µM (inactive) | > 30 µM (inactive) |
| Cc1cc(-c2cc(O)ccc2Cl)cc2nnc(Nc3ccc(OCCN4CCCC4)cc3)nc12 | > 30 µM (inactive) | > 30 µM (inactive) | > 30 µM (inactive) | > 30 µM (inactive) |
| O=C(c1ccc(F)c(F)c1Nc1ccc(I)cc1F)N1CC(O)([C@@H]2CCCCN2)C1 [COBIMETINIB] | > 30 µM (inactive) | > 30 µM (inactive) | > 30 µM (inactive) | > 30 µM (inactive) |
| CN1CCC(COc2cnc(-c3cccc(Cn4nc(-c5cccc(C#N)c5)ccc4=O)c3)nc2)CC1 [TEPOTINIB] | > 30 µM (inactive) | > 30 µM (inactive) | > 30 µM (inactive) | > 30 µM (inactive) |
| CC[C@@H]1C(=O)N(C)c2cnc(Nc3ccc(C(=O)N[C@H]4CC[C@H](N5CCN(CC6CC6)CC5)CC4)cc3OC)nc2N1C(C)C [VOLASERTIB] | > 30 µM (inactive) | > 30 µM (inactive) | > 30 µM (inactive) | > 30 µM (inactive) |
| C[C@@H]1CN(Cc2ccc(F)cc2)[C@@H](C)CN1C(=O)c1cc2c(C(=O)C(=O)N(C)C)cn(C)c2cc1Cl [TALMAPIMOD] | > 30 µM (inactive) | > 30 µM (inactive) | > 30 µM (inactive) | > 30 µM (inactive) |
| CO[C@H]1C[C@@H]2CC[C@@H](C)[C@@](O)(O2)C(=O)C(=O)N2CCCC[C@H]2C(=O)O[C@H]([C@H](C)C[C@@H]2CC[C@@H](OCCO)[C@H](OC)C2)CC(=O)[C@H](C)/C=C(\C)[C@@H](O)[C@@H](OC)C(=O)[C@H](C)C[C@H](C)/C=C/C=C/C=C/1C [EVEROLIMUS] | > 30 µM (inactive) | > 30 µM (inactive) | > 30 µM (inactive) | > 30 µM (inactive) |
| CNC(=O)c1ccc(C)c(-n2c(C)cc(OCc3ccc(F)cc3F)c(Br)c2=O)c1 [PH-797804] | > 30 µM (inactive) | > 30 µM (inactive) | > 30 µM (inactive) | > 30 µM (inactive) |
| O=C(O)[C@]1(Cc2cccc(Nc3nccs3)n2)CC[C@@H](Oc2cccc(Cl)c2F)CC1 [MK-5108] | > 30 µM (inactive) | > 30 µM (inactive) | > 30 µM (inactive) | > 30 µM (inactive) |
| Cc1ccc(-n2nc(C(C)(C)C)cc2NC(=O)NCc2cc(F)ccc2Oc2ccc3c(cnn3CCO)c2)cc1 [PEXMETINIB] | > 30 µM (inactive) | > 30 µM (inactive) | > 30 µM (inactive) | > 30 µM (inactive) |

Continued, values first:

| Kd [1] | Kd [2] | Kd [3] | Kd (Septin-9) | Compound |
| --- | --- | --- | --- | --- |
| > 30 µM (inactive) | > 30 µM (inactive) | 0.143 µM (active) | > 30 µM (inactive) | CN1CCC(CNc2ccc3ncc(-c4cccc(OC(F)(F)F)c4)n3n2)CC1 [SGI-1776] |
| > 30 µM (inactive) | > 30 µM (inactive) | > 30 µM (inactive) | > 30 µM (inactive) | O=c1sn(-c2cccc3ccccc23)c(=O)n1Cc1ccccc1 [TIDEGLUSIB] |
| > 30 µM (inactive) | > 30 µM (inactive) | > 30 µM (inactive) | > 30 µM (inactive) | COc1cc(OC)c(/C=C/S(=O)(=O)Cc2ccc(OC)c(NCC(=O)O)c2)c(OC)c1 [RIGOSERTIB] |
| > 30 µM (inactive) | > 30 µM (inactive) | > 30 µM (inactive) | > 30 µM (inactive) | CN(C)C(=O)c1cc2cnc(Nc3ccc(N4CCNCC4)cn3)nc2n1C1CCCC1 [RIBOCICLIB] |
| > 30 µM (inactive) | > 30 µM (inactive) | > 30 µM (inactive) | > 30 µM (inactive) | CC[C@H](Nc1ncnc2[nH]cnc12)c1nc2cccc(F)c2c(=O)n1-c1ccccc1 [IDELALISIB] |
| > 30 µM (inactive) | > 30 µM (inactive) | > 30 µM (inactive) | > 30 µM (inactive) | COC(=O)N[C@@H](C)CNc1nccc(-c2cn(C(C)C)nc2-c2cc(Cl)cc(NS(C)(=O)=O)c2F)n1 [ENCORAFENIB] |
| > 30 µM (inactive) | > 30 µM (inactive) | > 30 µM (inactive) | > 30 µM (inactive) | CNC(=O)CN1CCC(Oc2cc3c(Nc4cccc(Cl)c4F)ncnc3cc2OC)CC1 [SAPITINIB] |
| > 30 µM (inactive) | > 30 µM (inactive) | > 30 µM (inactive) | > 30 µM (inactive) | Cn1ncc(Cl)c1-c1cc(C(=O)N[C@H](CN)Cc2cccc(F)c2)sc1Cl [AFURESERTIB] |
| > 30 µM (inactive) | > 30 µM (inactive) | > 30 µM (inactive) | > 30 µM (inactive) | CCc1cnn2c(NCc3ccc[n+]([O-])c3)cc(N3CCCC[C@H]3CCO)nc12 [DINACICLIB] |
| > 30 µM (inactive) | > 30 µM (inactive) | > 30 µM (inactive) | > 30 µM (inactive) | Cn1cc(-c2ccc(F)c(C(F)(F)F)c2)nc1C1CCN(c2ncnc3[nH]ncc23)CC1 [LY-2584702] |
| > 30 µM (inactive) | > 30 µM (inactive) | > 30 µM (inactive) | > 30 µM (inactive) | CC(C)Nc1cc(-c2c[nH]c(C(=O)N[C@H](CO)c3cccc(Cl)c3)c2)c(Cl)cn1 [ULIXERTINIB] |
| > 30 µM (inactive) | > 30 µM (inactive) | > 30 µM (inactive) | > 30 µM (inactive) | Cc1ccc(NC(=O)c2ccc(CN3CC[C@H](N(C)C)C3)c(C(F)(F)F)c2)cc1Nc1nccc(-c2cncnc2)n1 [BAFETINIB] |
| > 30 µM (inactive) | > 30 µM (inactive) | > 30 µM (inactive) | > 30 µM (inactive) | COc1ccc(-c2ccc3c(N4CCOC[C@@H]4C)nc(N4CCOC[C@@H]4C)nc3n2)cc1CO [AZD-8055] |
